Here are results for 13 compounds from patent US10723716B2, “Alpha-helix mimetics as modulators of Abeta self-assembly” (New York University, priority 2016, dated 2020).

“Also recorded” adds a separate entry of the source.

Data set [1] addresses T1, Aβ42 (Homo sapiens, UniProt P05067).
T1 construct: Cleavage of APP results in several Aβ isoforms; The predominant species are Aβ42 and Aβ40; purchased Anaspec (Fremont, Calif., USA)
Nature of the data set: ThT-based kinetic assay of Aβ42 aggregation. It is filed as biochemical. As to conditions: for effect on Aβ42 oligomerization/fibrillation (ThT): equimolar ratio; for factor by which Aβ42 aggregation is delayed (rel. t50): 20 μM Aβ42, equimolar ratio. From the text: The aggregation of Aβ42 was monitored using an established exogenous dye, Thioflavin T (ThT) that intercalates between the amyloid fibers along the perpendicular axis without affecting the kinetics of amyloid formation. (see Wolfe, L. S.; Calabrese, M. F.; Nath, A.; Blaho, D. V.; Miranker, A. D.; Xiong, Y. Proc. Natl. Acad. Sci. U.S.A. 2010, 107, 16863-16868; Levine, H. Protein Sci. 1993, 2, 404-410). A representative ThT-based kinetic assay results are depicted in FIG. 2. The oligomerization reaction of Aβ42 was initiated by diluting a 1 mM stock solution of Aβ42 (in DMSO) to a concentration of 20 μM in phosphate buffer (150 mM KCl, 50 mM NaPi, pH 7.4). Aβ42 fibrillation is a nucleation-dependent polymerization process and is characterized by a sigmoidal curve consisting of a lag phase, an elongation phase, and a plateau phase (FIG. 2a). The kinetic reaction was quantified by extracting t50, which is the time required to reach 50% of the maximum fluorescence that results from fibrillation. Under standard conditions the tso for Aβ42 fibrillation was 2.1±0.2 h (FIG. 2a and FIG. 8).
(§1) Kinetic assays were conducted on a FlexStation 3 Multi-Mode Microplate reader from Molecular Devices (Sunnyvale, Calif., USA). Experiments were conducted in triplicate in a 96-well plate with a final volume of 200 μL per well. Every measurement was an average of 50 readings. The aggregation of an amyloidogenic peptide (Aβ40, Aβ42, or IAPP) was initiated by the addition of the peptide from a stock solution (in DMSO, 0.5-1 mM) to phosphate buffer. The final concentration of each peptide was different based on their aggregation. The stoichiometry of ThT dye for each peptide was 0.5:1 (ThT:peptide). Peptide aggregation was monitored by ThT fluorescence (λex=445 nm and λem=485 nm). The blank sample contained all the components of the peptide samples except the peptide. The sample data were processed by subtracting the fluorescence of the blank sample. The fluorescence intensity data was then normalized by setting the maximum value to 1.
(§2) Kinetic assays in the presence of the compounds of the invention were conducted under the same conditions. The small molecules were added from a stock solution (1 mM or 10 mM in DMSO) to keep the final concentration of DMSO less than 1.0% (v/v). Small molecules were added to the wells with ThT and buffer and mixed gently with a pipette before adding the peptide. To keep the conditions identical, an equal amount of DMSO was added to the wells with the peptide-only control reactions.
(§3) Kinetic profiles were processed using Origin (version 9.1). Kinetic curves were fit using the built-in sigmoidal fit. Each run was fit independently to extract the t50 (time required to reach 50% of the maximum fluorescence intensity). Error bars represent standard deviations from the mean of at least three independent experiments.
In the delayed addition experiments, where the oligopyridylamides were added at various time points during Aβ amyloid reaction, the conditions were same (as used for the assays where Aβ was preincubated with the oligopyridylamides). The Aβ oligomerization process was initiated by dissolving Aβ into buffer solution and then oligopyridylamides were added to this solution at indicated time points (depend on the assay) at an equimolar ratio.

A further data set deals with T2, IAPP (Homo sapiens, UniProt P10997).
T2 construct: purchased Anaspec (Fremont, Calif., USA)
T2 sequence (P10997 34-70 limits assumed): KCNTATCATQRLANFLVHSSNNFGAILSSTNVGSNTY
Nature of the data set: ThT-based kinetic assay of IAPP aggregation. It is filed as biochemical. The following applies: equimolar ratio (IAPP 10 μM, FIG. 25c, 26c, 27m). On the procedure:
as §1, §2, §3

The test system of data set [2] is Aβ42 mediated toxicity in mouse neuroblastoma (N2a) cells. The experiment in a line: Aβ42 mediated toxicity in Neuro-2a cells (MTS cell viability). As to conditions: for effect on Aβ42 mediated cytotoxicity: equimolar ratio, Neuro-2a cells; for rank order for the antagonist activity: Aβ42 mediated cytotoxicity and aggregation, 5 μM, 1:1 (FIG. 26a). It is filed as cell-based. The procedure: Cell viability was determined using a CellTiter 96® AQueous One Solution Cell Proliferation Assay (MTS) kit (Promega), which measures the reduction of the tetrazolium compound MTS (3-(4,5-dimethylthiazol-2-yl)-5-(3-carboxymethoxyphenyl)-2-(4-sulfophenyl)-2H-tetrazolium, inner salt) to soluble formazan by mitochondrial dehydrogenase enzyme in living cells. Formazan can be measured at 490 nm according to the manufacturer's instructions.
Neuro-2a cells (ATCC® […]) were maintained in serum-containing media [Dulbecco's Modified Eagle's Medium—high glucose (DMEM, Sigma) supplemented with 10% foetal bovine serum (FBS), 4 mM L-Glutamine (Sigma), and 1% penicillin/streptomycin (Sigma)] in 5% CO2 at 37° C. Once the cells reached ˜95% confluence, they were split (using 0.25% trypsin-EDTA, Sigma, St. Louis, USA), seeded at a density of 5×10^3 cells/well in 100 μL complete medium in 96-well plates and cultured for 48 h. Thereafter, the media was removed, the cells washed with phosphate buffered saline (PBS), and 90 μL of serum-free DMEM was added to the wells. A solution (A) containing 50 μM Aβ42 in NaOH (pH 10.5) was prepared and kept on ice, and a solution (B) containing 50 μM of the oligopyridylamide compound, H2O (2.33 μL/well) and 1× and 10×PBS was prepared and kept at room temperature. The solutions were combined, vortexed and 10 μL of this solution immeadiatly added to each well. The final concentrations in the wells were: 5 μM Aβ42, 5 μM oligopyridylamide, 200 μM NaOH, 0.1×PBS and 0.5% (v/v) DMSO.
(§4) To investigate the toxic effect of the peptide alone on cell viability, solution (B) without the oligopyridylamide compound was mixed with solution (A), while the effect of the oligopyridylamide compound alone was determined by adding solution (A) without peptide to solution (B). The effect of oligopyridylamides on seed-catalyzed Aβ42 aggregation was probed by preparing an additional solution (C) containing 0.5 μM seeds. The volume contributed by solution (C) was taken into account in preparing solution (B). Solution (C) was mixed with solution (B), and the resulting mixture was then added to solution (A) shortly before addition to the wells. To study the effect of oligopyridylamides on the oligomeric states of Aβ42, solution (A) was mixed with solution (B) without inhibitor and incubated at room temperature for 1, 2 or 3 h. Subsequently, 50 μM oligopyridylamides was added to the mixture, which was then immediately added to the cells. After culturing for 72 h in 5% CO2 at 37° C., 20 μL of MTS reagent was added to each well. The MTS reagent was incubated for 2.5 h at 37° C., and absorbance of the soluble formazan product (λ=490 nm) of MTS reduction was measured on a Synergy H1MF Multi-Mode microplate-reader (BioTek, Winooski, Vt., USA), with a reference wavelength of 650 nm to subtract the background. Wells treated with a solution containing serum-free DMEM, 200 μM NaOH, 0.1×PBS and 0.5% (v/v) DMSO served as control. MTS reduction was determined from the ratio of the absorbance of the treated wells to the control wells. Each data point represents an average of four independent quadruplet-well trials.

The test system of a further data set is Neuro-2a cells. Nature of the data set: Effect of compound alone on Neuro-2a cell viability. It is filed as cell-based, mouse. As to conditions: matched cytotoxic experimental conditions, no Aβ42. On the procedure: as §4, with “After culturing for 72 h in 5% CO2 at 37° C., 20 μL of MTS reagent was added to each well.” left out
In data set [3] the test system is IAPP mediated toxicity in rat INS-1 cells. Nature of the data set: IAPP mediated toxicity in INS-1 cells. Type of data set: cell-based. As to conditions: equimolar ratio, rat INS-1 cells.
In data set [4] the target is T1, Aβ42. Nature of the data set: ThT-based kinetic assay of Aβ42 aggregation. As to conditions: 5 μM, 1:1 (Ligand:Aβ42); without ligand 100%. Type of data set: biochemical.

T1 sequence (P05067 672-713 limits assumed): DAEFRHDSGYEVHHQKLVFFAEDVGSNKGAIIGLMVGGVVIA

As for `COC(=O)c1ccc([N+](=O)[O-])c(OCCCN)n1` [ADH-3], the “effect on Aβ42 oligomerization/fibrillation (ThT)” value on Aβ42 [1] is recorded as “No noticeable effect”.
Same read-out and setting: the result for `COC(=O)c1ccc([N+](=O)[O-])c(OC2CCCCC2)n1` [ADH-5] reads “No noticeable effect”.
On to `COC(=O)c1ccc(NC(=O)c2ccc(NC(=O)c3ccc([N+](=O)[O-])c(OCC(=O)O)n3)c(OCc3ccccc3)n2)c(OCC(=O)O)n1` [ADH-17], for which the “effect on Aβ42 oligomerization/fibrillation (ThT)” value on Aβ42 [1] is “no effect”. Besides, the “effect on IAPP fibrillation / amyloid formation (ThT)” value at IAPP was “completely inhibits”. Besides, the “effect on Aβ42 mediated cytotoxicity” value in data set [2] is on record as “no effect”. The “toxicity of compound alone to Neuro-2a cells” value (shortened to “toxicity of compound alone”) in the data set with Neuro-2a cells is “not toxic”. Besides, in data set [3], the “effect on IAPP mediated toxicity” value is listed as “completely inhibits”.
On to `COC(=O)c1ccc(NC(=O)c2ccc(NC(=O)c3ccc([N+](=O)[O-])c(OCCCN)n3)c(OCCCN)n2)c(OCCCN)n1` [ADH-19], for which, on Aβ42 [1], the “factor by which Aβ42 aggregation is delayed (rel. t50)” value (shortened to “factor”) worked out at 3.2±0.3 and the “effect on Aβ42 oligomerization/fibrillation (ThT)” value is on record as “effective in blocking”.
Take `COC(=O)c1ccc(NC(=O)c2ccc(NC(=O)c3ccc([N+](=O)[O-])c(OCc4ccccc4)n3)c(OCC(=O)O)n2)c(OCC(=O)O)n1` [ADH-27]: in the data set on Neuro-2a cells, the “toxicity of compound alone” value is “not toxic”.
As for `COC(=O)c1ccc(NC(=O)c2ccc(NC(=O)c3ccc([N+](=O)[O-])c(OCCCN)n3)c(OCc3ccccc3)n2)c(OCCCN)n1` [ADH-37], the “effect on Aβ42 oligomerization/fibrillation (ThT)” value at Aβ42 [1] was “weak inhibitor”. In addition, in data set [2], the “effect on Aβ42 mediated cytotoxicity” value is recorded as “did not have a noticeable effect”. Also, at Aβ42 [4], the “ThT fluorescence intensity of the amyloid reaction” value was 74%.
In the case of `COC(=O)c1ccc(NC(=O)c2ccc(NC(=O)c3ccc([N+](=O)[O-])c(OC(C)C)n3)c(OCc3ccccc3)n2)c(OCCCN)n1` [ADH-39], at Aβ42 [1], the “effect on Aβ42 oligomerization/fibrillation (ThT)” value was “accelerated”. Also, in data set [2], the “effect on Aβ42 mediated cytotoxicity” value is given as “effective at inhibiting cytotoxicity; also recorded: effective at rescuing cells; also recorded: equally effective”. Also, the “toxicity of compound alone” value with Neuro-2a cells is recorded as “not toxic”.
Regarding `CCCCOc1nc(C(=O)Nc2ccc(C(=O)Nc3ccc(C(=O)OC)nc3OCCCN)nc2OCCCN)ccc1[N+](=O)[O-]` [ADH-40], the “rank order for the antagonist activity” value in data set [2] is given as “ADH41>ADH46>ADM-40≥ADM-45A”. Moreover, the “toxicity of compound alone” value with Neuro-2a cells was “not toxic”.
In the case of `COC(=O)c1ccc(NC(=O)c2ccc([N+](=O)[O-])c(OCc3ccccc3)n2)c(OCCCN)n1` [ADH-43], on Aβ42 [1], the “factor” value is reported as 3.3±0.4 and the “effect on Aβ42 oligomerization/fibrillation (ThT)” value is recorded as “effective in blocking”.
For `COC(=O)c1ccc(NC(=O)c2ccc([N+](=O)[O-])c(OCCCN)n2)c(OCCCN)n1` [ADH-44], at Aβ42 [1], the “factor” value was found to be 2.4±0.3.
For `CCOc1nc(C(=O)Nc2ccc(C(=O)Nc3ccc(C(=O)OC)nc3OCCCN)nc2OCCCN)ccc1[N+](=O)[O-]` [ADH-45A], the “rank order for the antagonist activity” value in data set [2] was “ADH41>ADH46>ADM-40≥ADM-45A”. In the data set with Neuro-2a cells, the “toxicity of compound alone” value is on record as “not toxic”.
For the compound `COC(=O)c1ccc(NC(=O)c2ccc(NC(=O)c3ccc([N+](=O)[O-])c(OCC(C)C)n3)c(OCCCN)n2)c(OCCCN)n1` [ADH-46], in data set [2], the “rank order for the antagonist activity” value was “ADH41>ADH46>ADM-40≥ADM-45A” and the “effect on Aβ42 mediated cytotoxicity” value is “effective at rescuing cells”.
With `CCCCCCOc1nc(C(=O)Nc2ccc(C(=O)Nc3ccc(C(=O)OC)nc3OCCCN)nc2OCc2ccccc2)ccc1[N+](=O)[O-]` [ADH-52], the “effect on Aβ42 mediated cytotoxicity” value in data set [2] was “effective at rescuing cells”. Also, the “toxicity of compound alone” value in the data set with Neuro-2a cells is “not toxic”.
